From PubChem BioAssay (NCI)
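Where inhibition never reached the appropriate level, the endpoint shown equals the highest concentration tested. Otherwise, values were interpolated linearly from a five-concentration, 48-hour dose response in 96-well plates. GI50 marks 50% less growth. The concentration for full growth arrest is given as TGI.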

Key:
Experiment in all cases: inhibition of tumour cell growth, NCI panel, 48 h
ACHN renal = test system: ACHN renal
MALME-3M melanoma = test system: MALME-3M melanoma
SF-268 CNS = test system: SF-268 CNS
SF-295 CNS = test system: SF-295 CNS
SK-OV-3 ovarian = test system: SK-OV-3 ovarian
U251 CNS = test system: U251 CNS
HCT-116 colon = test system: HCT-116 colon
HL-60(TB) leukemia = test system: HL-60(TB) leukemia
LOX IMVI melanoma = test system: LOX IMVI melanoma
T-47D breast = test system: T-47D breast

SMILES	TGI (ACHN renal) [µM]	TGI (MALME-3M melanoma) [µM]	TGI (SF-268 CNS) [µM]	TGI (SF-295 CNS) [µM]	TGI (SK-OV-3 ovarian) [µM]	TGI (U251 CNS) [µM]	TGI (HCT-116 colon) [µM]	TGI (HL-60(TB) leukemia) [µM]	TGI (LOX IMVI melanoma) [µM]	GI50 (ACHN renal) [µM]	GI50 (HCT-116 colon) [µM]	GI50 (HL-60(TB) leukemia) [µM]	GI50 (LOX IMVI melanoma) [µM]	GI50 (MALME-3M melanoma) [µM]	GI50 (SF-268 CNS) [µM]	GI50 (SF-295 CNS) [µM]	GI50 (SK-OV-3 ovarian) [µM]	GI50 (U251 CNS) [µM]	TGI (T-47D breast) [µM]	GI50 (T-47D breast) [µM]
COc1ccc(/C=C2\Cc3ccccc3C2=O)cc1OC	> 100	> 100	> 100	> 100	> 100	> 100														
c1ccc2c(CNCCCCCCNCc3cccc4ccccc34)cccc2c1	29.5	3.42	25.7	24.8	31.5	22.8	4.35	3.45	3.5											
COC(=O)C[CH](C(=O)OC)[Ge]([CH3])([CH3])[S]c1ccccc1 (stereo not drawn)	36.6	> 100	64.1	40	67	26.2	58.2	17.5	17.1	18.4	27.9	3	4.92	> 100	18.7	12.6	25.8	12		
COC(=O)c1c[nH]c(=O)[nH]c1=O	> 100		> 100	> 100			> 100		> 100										> 100	
C=C(C=O)C1CC(=O)C(C(=O)OC)[C@@H]2O[C@@](C)(CC2=O)C[C@@H]2OC(=O)[C@]3(O[C@@H]23)[C@@H](C(=O)OC)C1 (stereo partly drawn)			65.9	28.6	> 100	39.8	33.6	53.5	21.3		14.7	20.1	7.94		21.5	11.2	60.6	14.6	> 100	33.7
COC(=O)/C=C/C(=O)C1C(C(=O)OC)C2(C(=O)OC)CCC1(C(=O)OC)N2 (stereo not drawn)		> 100	> 100	> 100	> 100	> 100	> 100	> 100												
C=CN1C(=O)OC(c2ccccc2)C1c1ccccc1 (stereo not drawn)	> 100	> 100	> 100	> 100	> 100	> 100	> 100	> 100	> 100	> 100	> 100			> 100	> 100		> 100			
O=C(O)c1c(O)c2cc(Br)ccc2oc1=O	> 100	> 100	> 100	> 100		> 100	> 100	> 100	> 100										> 100	
COc1ccc(/C(C)=C(\c2ccc(Cl)cc2)c2ccc(OCCN3CCCC3)cc2)cc1	9.62	7.61	9.79	7.25	10.7	8.3	5.78	10.9	5.84	5.1	1.55	4.57	1.51	2.72	4.73	3.23	6.03	3.9		
C=C(CN1CCN(c2ccccc2OC)CC1)c1ccc(C(=O)Nc2ccccc2N)cc1	4.95		36	15.4	18.1	11.1	18.3	> 50	1.42	0.856	6.02	1.81	0.243		12.2	4.11	7.18	1.7	45.2	10.8
CC(C)[C@@H]1C=C(c2ccccc2)c2ccccc2C1C(C#N)(C#N)C(C)C (stereo partly drawn)	> 100	> 100	> 100	> 100	> 100	> 100	> 100	> 100	> 100											
COc1cc([C@@H]2c3cc4c(cc3[C@@H](NC(=O)c3ccc(N)cc3)C3COC(=O)[C@@H]32)OCO4)cc(OC)c1O (stereo partly drawn)	4.9	19.8	> 100	95.8	8.06	3.5	17	4.35	18.7											
N#Cc1cccc(NC(=O)c2ccc(C(=O)O)c(C(=O)c3ccc(C(=O)O)c(C(=O)Nc4cccc(C#N)c4)c3)c2)c1		> 100	> 100	> 100	> 100	> 100	> 100	> 100	> 100											
O=C(/C=C/c1ccc(C(F)(F)F)cc1)c1ccc(Nc2nc(NCCO)nc(NCCO)n2)cc1	15.6	18.8	11.5	13	15.1		3.9	10.3	3	4.38	1.79	2.97	1.56	4.95	2.8	3.2	4		11.8	2.51
CCC1C(C)c2c([nH]c3ccccc23)C2C(=O)N(c3ccccc3)C(=O)C21 (stereo not drawn)	66.5	30.4	62.5	32.3	44.1	29.3		33.9	31.8											
OCC(O)C(O)c1nn(-c2ccccc2)c2nc3cc(Cl)c(Cl)cc3nc12 (stereo not drawn)	75.6	44.1	80.5	> 100	> 100	> 100	54.4	50.9	58.1											
S=c1nc[nH]c2c1ncn2Cc1ccco1	> 100	> 100	> 100	> 100	> 100	> 100	> 100		> 100										> 100	
Cc1nc(C)c(C(=O)Nc2cccc3c2C(=O)NC3=O)cc1C(=O)Nc1cccc2c1C(=O)NC2=O	> 100	> 100	> 100	> 100	> 100	> 100	> 100	> 100	> 100											
O=C(CC(=O)N1N=C(c2ccccc2)C(N=Nc2ccc(C(=O)O)cc2)C1=O)Nc1ccc(F)cc1 (stereo not drawn)	> 100	> 100	> 100	> 100	62.6		28.8	42.9	> 100											
